Test results published in patent US20160082071A1, “METHODS OF TREATING MYELOID LEUKEMIA” (BIOKINE THERAPEUTICS LTD., priority 2013, published 2016).
Like-named read-outs stand apart in the source and are kept apart here.

Tests used:
[1] = system: human AML xenografts; conditions: subcutaneous injections; Beider et al., Exp. Hematol. 2011; cited from earlier work
[2] = system: Normal C57BL/6 female mice; conditions: mouse, in vivo
Protocol: (§1) Lyophilized 4F-benzoyl-TN14003 was manufactured by MSD N.V. The compound was dissolved with water for injection (WFI) at a final stock concentration of 25 mg/ml and stored at −20° C. until use. Before injection to the mice, 4F-benzoyl-TN14003 was thawed and diluted with PBS to final concentration of 5 mg/ml. Actual dosing solutions were prepared by diluting the 5 mg/ml stock solution (total dose including salt) in PBS just before the injection. 4F-benzoyl-TN14003 was administered at a constant dose volume of 200 μL.
(§2) Cytarabine (Cytosine arabinoside; ARA-C) was purchased from Hadassah cytotoxica pharmacy (Israel). ARA-C was provided from Hadassah cytotoxica pharmacy at concentration of 100 mg/ml. Actual dose solution (200 mg/Kg) was prepared by diluting the 100 mg/ml stock solution in PBS.
(§3) Normal C57BL/6 female mice, 9-10 week old, about 20 gram in weight, were used. The animals were kept in groups of a maximum of 10 animals in polysulphone cages (425×266×185 mm), fitted with solid bottoms and filled with wood shavings as bedding material. The animals were provided ad libitum a commercial rodent diet (Harlan Teklad™ Ra/Mouse Diet) and allowed free access to autoclaved water, supplied to each cage via polysulphone bottles with stainless steel sipper-tubes. From the first day of ARA-C dosing wet food was placed at the bottom of the cage. Ten animals were randomly allocated per treatment group.
(§4) The treatments groups were as followed (10 animals per treatment group): • Group A: untreated control. • Group B: animals administered with 4FB-TN14003 at a dose of 2.4, 4.8, 9.6 or 12 mg/Kg daily from day 1 to day 7. • Group C: animals administered with ARA-C at a dose of 200 mg/Kg daily from day 3 to 7. • Group D: animals administered with 4FB-TN14003 as in group B (at a dose of 2.4, 4.8, 9.6 or 12 mg/Kg daily from day 1 to day 7) and also with ARA-C as in group C (at a dose of 200 mg/Kg daily from day 3 to 7).
(§5) 4FB-TN14003 was injected SC at a constant dose volume of 200 μL/mouse (based on the latest determined body weight-average of 20 gr), once daily for 7 consecutive days (days 1-7). Control mice were injected with the vehicle (PBS) only under the same regimen.
(§6) ARA-C was diluted in PBS and injected SC at a constant dose of 200 mg/kg and at constant volume of 200 μL/mouse, once daily for 5 consecutive days (days 3-7). In the combination groups (groups 7-10) ARA-C was injected 4 hours following 4FB-TN14003 injection.
(§7) Blood samples were collected on day 12 of the experiment. The mice in each group were subjected to terminal bleeding from the orbital sinus. Blood samples (ca. 400-500 μl) were dispensed into special serum gel separation tubes (BD Microgard™) centrifuged at 13,000 rpm for 8 minutes at RT and saved the supernatant sera. Sera samples (at least 220 μl) were kept at 2-8° C. to complete blood counts (CBC).

[3] = system: malignant cells of hematopoietic origin including AML; conditions: cited from earlier work
[4] = system: Normal C57BL/6 female mice; assay: Toxicity assay: complete blood counts in mice treated with 4F-benzoyl-TN14003, ARA-C or both
Protocol: as §1, §2, §3, §4, §5, §6, §7

Molecule | growth of human AML xenografts [1] | hematocrit [2] | hemoglobin (HGB) [2] | lymphocyte Abs [2] | platelets [2] | red blood-cells (RBC) [2] | cytotoxicity toward malignant cells of hematopoietic origin including AML [3] | levels of platelets ([4]; ARA-C alone versus ARA-C in combination with 4F-benzoyl-TN14003, FIG. 5) | levels of neutrophil Abs ([4]; ARA-C alone versus ARA-C in combination with 4F-benzoyl-TN14003, FIG. 7) | white blood-cells (WBC) ([4]; compared with untreated control, blood collected day 12 (five days after treatment), ARA-C 200 mg/Kg SC days 3-7, 4F-benzoyl-TN14003 2.4, 4.8, 9.6 or 12 mg/Kg SC days 1-7, FIG. 1) | red blood-cells (RBC) ([4]; compared with untreated control, blood collected day 12, FIG. 2) | hematocrit ([4]; compared with untreated control, blood collected day 12, FIG. 3) | hemoglobin (HGB) ([4]; compared with untreated control, blood collected day 12, FIG. 4) | platelets ([4]; compared with untreated control, blood collected day 12, FIG. 5) | lymphocyte Abs ([4]; compared with untreated control, blood collected day 12, FIG. 6) | neutrophil Abs ([4]; compared with untreated control, blood collected day 12, FIG. 7)
4F-benzoyl-Arg-Arg-Nal-Cys-Tyr-Cit-Lys-DLys-Pro-Tyr-Arg-Cit-Cys-Arg-NH2 [4F-benzoyl-TN14003] | significantly reduced | did not cause a reduction | did not cause a reduction | did not cause a reduction | did not cause a reduction | did not cause a reduction | CXCR4-dependent preferential cytotoxicity | – | – | – | – | – | – | – | – | –
Nc1ccn([C@@H]2O[C@H](CO)[C@@H](O)[C@@H]2O)c(=O)n1 [ARA-C, Cytarabine] | – | – | – | – | – | – | – | equally reduced levels | equally reduced levels | drastic reduction | drastic reduction | drastic reduction | drastic reduction | drastic reduction | drastic reduction | drastic reduction
